T1: LIL3 (LIL3.1) (Arabidopsis thaliana, UniProt Q9SYX1)
T1 construct: PCC 6803 GT-P, DDM-solubilized, dimer
T1 sequence (Q9SYX1 40-262): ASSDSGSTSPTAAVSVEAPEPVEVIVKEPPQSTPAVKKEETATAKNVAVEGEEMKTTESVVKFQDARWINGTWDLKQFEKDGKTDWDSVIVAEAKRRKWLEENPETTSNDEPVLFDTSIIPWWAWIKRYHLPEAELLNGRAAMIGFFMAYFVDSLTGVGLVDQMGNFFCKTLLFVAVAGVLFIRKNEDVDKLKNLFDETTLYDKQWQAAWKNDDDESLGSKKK

T2: LIL3 (LIL3.1) (Arabidopsis thaliana, UniProt Q9SYX1, N177D)
T2 construct: PCC 6803 GT-P, DDM-solubilized, dimer
T2 sequence (Q9SYX1 40-262 N177D): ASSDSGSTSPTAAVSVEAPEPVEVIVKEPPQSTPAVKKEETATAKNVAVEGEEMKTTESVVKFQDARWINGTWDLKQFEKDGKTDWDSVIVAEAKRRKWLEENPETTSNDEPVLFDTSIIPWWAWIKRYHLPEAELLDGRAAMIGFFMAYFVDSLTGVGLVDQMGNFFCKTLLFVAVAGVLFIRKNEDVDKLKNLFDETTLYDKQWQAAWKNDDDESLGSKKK

T3: LIL3 (LIL3.1) (Arabidopsis thaliana, UniProt Q9SYX1, N177A)
T3 construct: PCC 6803 GT-P, DDM-solubilized, dimer
T3 sequence (Q9SYX1 40-262 N177A): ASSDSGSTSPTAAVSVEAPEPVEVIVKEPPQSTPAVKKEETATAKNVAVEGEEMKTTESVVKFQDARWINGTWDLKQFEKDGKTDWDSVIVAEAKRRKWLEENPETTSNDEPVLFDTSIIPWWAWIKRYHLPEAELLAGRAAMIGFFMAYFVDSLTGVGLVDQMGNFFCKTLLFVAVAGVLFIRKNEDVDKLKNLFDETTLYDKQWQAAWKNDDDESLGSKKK

T4: ELIP2 (Arabidopsis thaliana, UniProt Q94K66)
T4 construct: PCC 6803 GT-P, DDM-solubilized, monomeric
T4 sequence (Q94K66 44-193): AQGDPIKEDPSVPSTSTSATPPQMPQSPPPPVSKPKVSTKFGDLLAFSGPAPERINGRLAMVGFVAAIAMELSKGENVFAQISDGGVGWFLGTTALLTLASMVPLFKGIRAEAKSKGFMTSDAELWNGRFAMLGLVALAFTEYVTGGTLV


Tests used:
LIL3 (LIL3.1) [1] = molecular target: T1, LIL3 (LIL3.1); assay: co-purification (Ni-NTA, sucrose gradient), CN-PAGE, SEC, HPLC pigment analysis; assay type: binding; conditions: dimer; pH 6.5, 0.03% DDM, 15 °C
LIL3 (LIL3.1) [2] = molecular target: T2, LIL3 (LIL3.1); assay: co-purification, 2D CN/SDS-PAGE; assay type: binding; conditions: DDM-solubilized
LIL3 (LIL3.1) [3] = molecular target: T3, LIL3 (LIL3.1); assay: co-purification; pigment colour of the purified protein; assay type: binding; conditions: DDM-solubilized
ELIP2 = molecular target: T4, ELIP2; assay: co-purification (Ni-NTA, sucrose gradient), SEC, HPLC pigment analysis; assay type: binding; conditions: pH 6.5, 0.03% DDM, 15 °C
[4] = molecular target: the molecule itself; assay: native gel or EMSA; 2D clear native/SDS-PAGE (4-14% CN gel, DDM) of LIL3 purified from the wild type background, pigmented; Coomassie stain; mass judged against Synechocystis membrane complexes with a detergent belt assumed

| Molecule | co-purification (Ni-NTA, sucrose gradient), CN-PAGE, SEC, HPLC pigment analysis (LIL3 (LIL3.1) [1]) | no binding (LIL3 (LIL3.1) [2]) | no binding (LIL3 (LIL3.1) [3]) | co-purification (Ni-NTA, sucrose gradient), SEC, HPLC pigment analysis (ELIP2) | stoichiometry N [4] |
| --- | --- | --- | --- | --- | --- |
| CC1=C(/C=C/C(C)=C/C=C/C(C)=C/C=C/C=C(C)/C=C/C=C(C)/C=C/C2=C(C)C[C@@H](O)CC2(C)C)C(C)(C)C[C@H](O)C1 [Zea, zeaxanthin] | Pigments extracted from the LIL3 SEC fraction contained Zea and Chl | showing that the N177D mutation abolishes pigment binding | (LIL3-N177A and LIL3-N177D) were purified from Synechocystis as completely colourless proteins | Pigments co-isolated with ELIP2 consisted of Zea, Chl, and β-Car | – |
| CC1=C(/C=C/C(C)=C/C=C/C(C)=C/C=C/C=C(C)/C=C/C=C(C)/C=C/C2=C(C)CCCC2(C)C)C(C)(C)CCC1 [β-Car] | – | – | – | Pigments co-isolated with ELIP2 consisted of Zea, Chl, and β-Car | – |
| LIGHT-HARVESTING-LIKE 3 protein LIL3.1 from Arabidopsis, 8xHis-tagged, without the predicted signal sequence (natural protein, UniProt Q9SYX1 40-262, looked up, printed mass 25.1 KDa; Cloned into the pPD-NFLAG plasmid by NdeI and BglII with 8xHis added by the forward primer; From the wild type background it carries Chl and zeaxanthin; from ZEP^+ and xant^- it is (almost) colourless; also called LIL3[2]; LIL3 (ZEP^+); source: Synechocystis sp; PCC 6803 (psbAII promoter; wild type, ZEP^+ or xant^- background), purified from DDM-solubilized membranes …) ASSDSGSTSPTAAVSVEAPEPVEVIVKEPPQSTPAVKKEETATAKNVAVEGEEMKTTESVVKFQDARWINGTWDLKQFEKDGKTDWDSVIVAEAKRRKWLEENPETTSNDEPVLFDTSIIPWWAWIKRYHLPEAELLNGRAAMIGFFMAYFVDSLTGVGLVDQMGNFFCKTLLFVAVAGVLFIRKNEDVDKLKNLFDETTLYDKQWQAAWKNDDDESLGSKKK | – | – | – | – | 2 |

From publication PMC8617258, “Plant LHC-like proteins show robust folding and static non-photochemical quenching” (Nature Communications, 2021)
